Data: US20110104159A1, “COMPOSITIONS AND METHODS FOR TREATING, CONTROLLING, REDUCING, AMELIORATING, OR PREVENTING ALLERGY” (priority 2006, published 2011)
Several values for one entry are separate records, joined by “and”; a condition that tells them apart may be missing. Equal entries are not always repeated.

How the values were obtained:
[1] = system: protein concentration in the aqueous humor; assay: Protein measurement in aqueous humor; format: in vivo, Rabbit; details: for Protein in aqueous humor at the second paracentesis, Mean: group mean; for Protein in aqueous humor at the second paracentesis: individual eye sample, listed as BOL
Description: (§1) Each rabbit was placed in a restraint device and tagged with the alphanumeric code. The formulations were instilled (50 μl) into the conjunctival sac of both eyes 180, 120, 90 and 30 min before the first paracentesis; then 15, 30, 90 min after the first paracentesis. To perform the first paracentesis the animals were anaesthetized by intravenous injection of 5 mg/kg Zoletil® (Virbac; 2.5 mg/kg tiletamine HCl and 2.5 mg/kg zolazepam HCl) and one drop of local anesthetic (Novesina®, Novartis) was administered to the eye. Anterior chamber paracentesis was performed with a 26 G needle attached to a tuberculin syringe; the needle was introduced into the anterior chamber through the cornea, taking care not to damage the tissues. Two hours after the first paracentesis, the animals were sacrificed with 0.4 ml Tanax® (Intervet International B.V.) and the second paracentesis was performed. About 100 μl of aqueous humor were removed at the second paracentesis. Aqueous humor was immediately split in four aliquots and stored at −80° C. until analysis. Then both eyes were enucleated and the iris-ciliary body was carefully excised, placed in polypropylene tubes, and stored at −80° C. until analysis.
For protein concentration determination in the aqueous humor we used the Protein Quantification Kit (Fluka; Cat. No. 77371; Lot. No. 1303129). Five microliters of aqueous humor were diluted to 100 μl with water. Twenty microliters of samples and of standards were load into a 96-well plate and recorded in a plate layout. Samples were treated following the assay procedure described in the kit. A microplate reader (GDV, Italy; model DV 990 B/V6) set at 670 nm was used for making the calibration and analyzing the samples.

MPO = assay: Myeloperoxidase (MPO) activity in iris-ciliary body; format: in vivo, Rabbit; details: for MPO activity in iris-ciliary body, statistical comparison with CTR: p<0.001; for Mean MPO Unit/g (MPO activity in iris-ciliary body samples): group mean, after the second paracentesis; for MPO Unit/g (raw data of MPO activity in iris-ciliary body samples): individual eyes (DX/SX) of rabbits, samples collected after the second paracentesis, listed as BOL
Description: 2.3.2.1 Phosphate Buffer (50 mM; pH=6)
3.9 g of NaH2PO4 2H2O were dissolved in a volumetric flask to 500 ml with water. The pH was adjusted to pH=6 with 3N NaOH.
0.5 g of hexa-decyl-trimethyl-ammonium bromide was dissolved in 100 ml phosphate buffer.
The solution was prepared freshly. Ten microliters of H2O2 (30 wt. %) were diluted to 1 ml with water (solution A). 7.5 mg o-dianisidine 2HCl were dissolved in 45 ml of phosphate buffer and 75 μl of solution A were added.
as §1
The activity of MPO was measured as previously described by Williams et al. The iris-ciliary bodies were carefully dried, weighed and immersed in 1 ml of hexa-decyl-trimethyl-ammonium bromide solution. Then, the samples were sonicated for 10 sec on ice by a ultrasound homogenizer (HD 2070, Bandelin electronic), freeze-thawed three times, sonicated for 10 sec and centrifuged at 14,000 g for 10 min to remove cellular debris. An aliquot of the supernatant (40-200 μl) was diluted to 3 ml with the o-dianisidine 2HCl/H2O2 solution. The change in absorbance at 460 nm was continuously monitored for 5 min by a spectrophotometer (UV/Vis Spectrometer Lambda EZ 201; Perkin Elmer). The slope of the line (Δ/min) was determined for each sample and used to calculate the number of units of MPO in the tissue as follows:
where ε=11.3 mM^−1. Values were expressed as units of MPO/g of tissue.

[2] = system: murine thymocyte line S49; details: murine thymocyte line S49 [26]; cited from earlier work
[3] = system: rabbit paracentesis model; assay: Rabbit paracentesis model of ocular inflammation (overall conclusion); format: in vivo; details: 0.1%, 0.5% and 1% topical; preliminary conclusion
Text: Inflammatory processes are multidimensional in origin, and are characterized by complex cellular and molecular events involving numerous components all of which have not been identified. Prostaglandins are among these mediators and play an important role in certain forms of ocular inflammation. Paracentesis of the anterior chamber in the rabbit eye induces inflammatory reaction due to the disruption of the blood-aqueous barrier (“BAB”), which is mediated, at least in part, by prostaglandin E2 [References 1-3 below]. Intraocular or topical administration of PGE2 disrupts the BAB. [Reference 4, below] The treatment schedule adopted in this study was similar to the clinical NSAIDs (Ocufen) treatment schedule used by surgeons for patients before cataract surgery.
Each rabbit was placed in a restraint device and tagged with the alphanumeric code. The formulations were instilled (50 μl) into the conjunctival sac of both eyes 180, 120, 90 and 30 min before the first paracentesis; then 15, 30, 90 min after the first paracentesis. To perform the first paracentesis the animals were anaesthetized by intravenous injection of 5 mg/kg Zoletil® (Virbac; 2.5 mg/kg tiletamine HCl and 2.5 mg/kg zolazepam HCl) and one drop of local anesthetic (Novesina®, Novartis) was administered to the eye. […]

[4] = system: cultured human ocular cells; details: cultured human ocular cells [13, 29]; cited from earlier work
[5] = system: ovalbumin-sensitized guinea pigs; assay: Active anaphylaxis in the guinea pig: conjunctival symptoms after OVA challenge; format: in vivo; details: 0.4% eye drops, 30 μl/eye 45 min before OVA
Description: Male Dunkin-Hartley guinea pigs (250-300 g) were purchased from Charles River (Calco, Italy). Animal procedures followed the guidelines of the University of Bologna Animal Care and Use Committee and conformed to the Association for Research in Vision and Ophthalmology (ARVO) resolution on the use of animals in research.
Male Dunkin-Hartley guinea pigs were actively immunized by i.p. injection of 200 μg OVA in 2 ml saline with 40 mg aluminum hydroxide (positive control) or saline alone (negative control), as previously reported. […] Negative controls received saline alone.
Conjunctival clinical symptoms were rated blind on both eyes using the following scale: 0, no symptoms; 1, slight conjunctival redness with or without tears; 2, mild conjunctival redness with tears and mild chemosis; 3, mild conjunctival redness with tears and moderate chemosis; 4, severe conjunctival redness with tears and partial lid eversion; 5, severe conjunctival redness with tears and lids more than half closed. The animals were euthanized 24 h after OVA challenge by i.p. injection of Tanax® (3 ml/kg; Hoechst AG, Frankfurt-am-Main, Germany) and the conjunctivas were carefully excised and each was divided into two samples for subsequent investigations. […] The number of eosinophils in each field was counted under light microscopy (×500 magnification). In the other sample eosinophil peroxidase activity was measured.

[6] = system: rabbit paracentesis model; assay: Pupillary diameter measurement, rabbit paracentesis model; format: in vivo; details: for Pupillary diameter T2: −5 min: 5 min before first paracentesis; for Pupillary diameter T2: −5 min / Pupillary diameter T3: +115 min / Pupillary diameter Δ(T3 − T1) / Pupillary diameter T1: −180 min: individual eye, listed as BOL; for Pupillary diameter T3: +115 min: 5 min before second paracentesis; for Pupillary diameter Δ(T3 − T1): +115 min minus −180 min; for Pupillary diameter T1: −180 min: basal; for Mean (mm) Δ(T3 − T1) of pupillary diameter: group mean, n=8 eyes
Description: as §1
The pupillary diameter of both eyes was measured with a Castroviejo caliper 180 min and 5 min before the first paracentesis and 5 min before the second paracentesis.

With Cc1ccc2c(NC[C@](O)(CC(C)(C)c3cc(F)cc4c3OCC4)C(F)(F)F)cccc2n1 [BOL-303242-X, (R)-1,1,1-Trifluoro-4-(5-fluoro-2,3-dihydrobenzofuran-7-yl)-4-methyl-2-{[(2-methyl-5-quinolyl)amino]methyl}pentan-2-ol] the “Protein in aqueous humor at the second paracentesis, Mean” value (“Protein in aqueous humor … Mean” below) ([1]; 0.1% topical) was 33.667 mg/mL, the “Protein in aqueous humor at the second paracentesis” value ([1]; 0.1% topical) was 34.87 mg/mL and 34.41 mg/mL and 31.14 mg/mL and 22.82 mg/mL and 29.46 mg/mL and 31.69 mg/mL and 35.70 mg/mL and 49.25 mg/mL and the “Protein in aqueous humor … Mean” value ([1]; 0.5% topical) was 28.844 mg/mL. For the same molecule, the “Protein in aqueous humor at the second paracentesis” value ([1]; 0.5% topical) was 33.98 mg/mL and 33.65 mg/mL and 19.99 mg/mL and 27.11 mg/mL and 19.72 mg/mL and 36.35 mg/mL and 27.71 mg/mL and 32.24 mg/mL, the “Protein in aqueous humor, statistical comparison with CTR” value ([1]; 0.5% topical, p<0.05) was “statistical significance” and the “Protein in aqueous humor … Mean” value ([1]; 1% topical) was 21.435 mg/mL. For the same molecule, the “Protein in aqueous humor at the second paracentesis” value ([1]; 1% topical) was 20.99 mg/mL and 21.48 mg/mL and 15.11 mg/mL and 20.28 mg/mL and 20.94 mg/mL and 21.89 mg/mL and 20.03 mg/mL and 30.76 mg/mL, the “Protein in aqueous humor, statistical comparison with CTR” value ([1]; 1% topical, p<0.001) was “statistical significance” and the “MPO activity in iris-ciliary body, statistical comparison with CTR” value (shortened to “MPO activity in iris-ciliary body … with CTR”) (MPO; 0.1% topical) was “statistical significance”. For the same molecule, the “Mean MPO Unit/g (MPO activity in iris-ciliary body samples)” value (from here on “Mean MPO Unit/g”) (MPO; 0.1% treatment) was 0.971 Unit/g, the “MPO Unit/g (raw data of MPO activity in iris-ciliary body samples)” value (MPO; 0.1% treatment) was 1.04 Unit/g and 1.00 Unit/g and 1.14 Unit/g and 1.06 Unit/g and 1.22 Unit/g and 0.61 Unit/g and 1.05 Unit/g and 0.65 Unit/g and the “MPO activity in iris-ciliary body … with CTR” value (MPO; 0.5% topical) was “statistical significance”. The “Mean MPO Unit/g” value (MPO; 0.5% treatment) was 0.775 Unit/g, the “MPO Unit/g (raw data of MPO activity in iris-ciliary body samples)” value (MPO; 0.5% treatment) was 0.85 Unit/g and 0.93 Unit/g and 0.79 Unit/g and 1.03 Unit/g and 0.75 Unit/g and 0.74 Unit/g and 0.54 Unit/g and 0.58 Unit/g and the “MPO activity in iris-ciliary body … with CTR” value (MPO; 1% topical) was “statistical significance”. For the same molecule, the “Mean MPO Unit/g” value (MPO; 1% treatment) was 0.542 Unit/g, the “MPO Unit/g (raw data of MPO activity in iris-ciliary body samples)” value (MPO; 1% treatment) was 0.66 Unit/g and 0.68 Unit/g and 0.49 Unit/g and 0.40 Unit/g and 0.34 Unit/g and 1.02 Unit/g and 0.31 Unit/g and 0.43 Unit/g and the “Induction of apoptosis in thymocytes” value [2] was “does not induce apoptosis”. For the same molecule, the “Activity in the rabbit paracentesis model” value [3] was “active in this model”, the “Blocking inflammatory cytokine release” value [4] was “equally potent in blocking inflammatory cytokine release” and the “Conjunctival symptoms (swelling of the eyelids and chemosis), early phase” value ([5]; 1 h after challenge) was “significantly reduced”. For the same molecule, the “Severity of conjunctival symptoms, late phase” value ([5]; 6 h after challenge) was “significant reduction in the severity of conjunctival symptoms”, the “Pupillary diameter T2: −5 min” value ([6]; 0.1% topical) was 6.5 mm (3×) and 7.0 mm (4×) and 7.5 mm and the “Pupillary diameter T3: +115 min” value ([6]; 0.1% topical) was 5.0 mm (2×) and 6.0 mm (3×) and 6.5 mm and 5.5 mm (2×). The “Pupillary diameter Δ(T3 − T1)” value ([6]; 0.1% topical) was −1.5 mm (4×) and −0.5 mm (2×) and −1.0 mm (2×), the “Pupillary diameter T1: −180 min” value ([6]; 0.1% topical) was 6.5 mm (4×) and 7.0 mm (3×) and 7.5 mm and the “Pupillary diameter T2: −5 min” value ([6]; 0.5% topical) was 8.0 mm (3×) and 7.0 mm (4×) and 7.5 mm. For the same molecule, the “Pupillary diameter T3: +115 min” value ([6]; 0.5% topical) was 6.5 mm (4×) and 6.0 mm (2×) and 7.0 mm (2×), the “Pupillary diameter Δ(T3 − T1)” value ([6]; 0.5% topical) was −1.5 mm (2×) and −0.5 mm (2×) and −1.0 mm (4×) and the “Pupillary diameter T1: −180 min” value ([6]; 0.5% topical) was 8.0 mm (3×) and 7.0 mm (3×) and 7.5 mm (2×). The “Mean (mm) Δ(T3 − T1) of pupillary diameter” value ([6]; 0.5% topical) was −1.0 mm, the “Pupillary diameter T2: −5 min” value ([6]; 1% topical) was 6.0 mm (2×) and 6.5 mm (4×) and 7.0 mm (2×) and the “Pupillary diameter T3: +115 min” value ([6]; 1% topical) was 5.5 mm (2×) and 5.0 mm (4×) and 6.0 mm (2×). The “Pupillary diameter Δ(T3 − T1)” value ([6]; 1% topical) was −0.5 mm (3×) and −1.5 mm (2×) and −1.0 mm (3×), the “Pupillary diameter T1: −180 min” value ([6]; 1% topical) was 6.0 mm (3×) and 6.5 mm (5×) and the “Mean (mm) Δ(T3 − T1) of pupillary diameter” value ([6]; 1% topical) was −0.9 mm.
